ChEMBL document CHEMBL1201862, “PubChem BioAssay data set” (2004)
Active and inactive are the calls of the source.

Assays:
H4 = experiment: Luminescence Cell-Based Dose Response HTS to Identify Activators of 5'UTR Stem-Loop Driven Prion Protein mRNA Translation in H4 Neuroglioblastoma Cells. [Related pubchem assays: 1829 (Project Summary), 1814 (Primary HTS)]; format: functional; settings: Homo sapiens
[1] = Luminescence Cell-Based Dose Response HTS to Identify Activators of Luciferase Translation or Activity in H4 […] Cells. [Related pubchem assays: 1829 (Project Summary), 1814 (Primary HTS)]; format: functional
Cytochrome P450 2D6 = Cytochrome P450 2D6 (Homo sapiens, UniProt P10635);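 note: CYP2D6 member of a cytochrome P450 panel assay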
Cytochrome P450 2D6, sequence (P10635 whole entry): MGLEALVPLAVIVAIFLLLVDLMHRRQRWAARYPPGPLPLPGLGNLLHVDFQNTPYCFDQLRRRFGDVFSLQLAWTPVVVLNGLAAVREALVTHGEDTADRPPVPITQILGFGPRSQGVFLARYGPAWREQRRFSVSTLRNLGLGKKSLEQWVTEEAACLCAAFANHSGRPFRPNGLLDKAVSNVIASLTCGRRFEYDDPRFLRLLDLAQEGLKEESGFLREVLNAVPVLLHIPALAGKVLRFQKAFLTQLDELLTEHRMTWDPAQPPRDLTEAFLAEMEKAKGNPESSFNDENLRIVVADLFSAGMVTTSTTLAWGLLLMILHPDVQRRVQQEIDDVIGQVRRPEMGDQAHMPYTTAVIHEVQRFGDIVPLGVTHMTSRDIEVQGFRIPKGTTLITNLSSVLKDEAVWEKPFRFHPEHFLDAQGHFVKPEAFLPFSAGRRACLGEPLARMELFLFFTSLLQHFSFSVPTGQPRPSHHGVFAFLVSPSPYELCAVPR

Cytochrome P450 2C9 = Cytochrome P450 2C9 (Homo sapiens, UniProt P11712)
Cytochrome P450 2C9, sequence (P11712 whole entry): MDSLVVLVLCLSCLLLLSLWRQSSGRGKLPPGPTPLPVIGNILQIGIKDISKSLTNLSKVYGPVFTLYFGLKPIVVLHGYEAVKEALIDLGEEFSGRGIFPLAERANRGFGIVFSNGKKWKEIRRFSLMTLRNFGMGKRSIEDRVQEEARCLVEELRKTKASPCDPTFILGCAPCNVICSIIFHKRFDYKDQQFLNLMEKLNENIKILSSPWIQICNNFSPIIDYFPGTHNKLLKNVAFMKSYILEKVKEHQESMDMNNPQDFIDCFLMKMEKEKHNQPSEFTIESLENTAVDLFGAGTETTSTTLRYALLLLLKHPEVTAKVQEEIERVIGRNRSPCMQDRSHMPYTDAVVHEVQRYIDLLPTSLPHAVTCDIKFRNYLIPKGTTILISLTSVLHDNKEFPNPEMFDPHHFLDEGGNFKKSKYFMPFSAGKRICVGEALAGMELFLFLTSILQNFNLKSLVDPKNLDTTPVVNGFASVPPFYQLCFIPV

Cytochrome P450 1A2 = biological target: T1, Cytochrome P450 1A2 (Homo sapiens, UniProt P05177);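 note: PubChem cytochrome P450 panel assay, CYP1A2 panel member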
T1 sequence (P05177 whole entry): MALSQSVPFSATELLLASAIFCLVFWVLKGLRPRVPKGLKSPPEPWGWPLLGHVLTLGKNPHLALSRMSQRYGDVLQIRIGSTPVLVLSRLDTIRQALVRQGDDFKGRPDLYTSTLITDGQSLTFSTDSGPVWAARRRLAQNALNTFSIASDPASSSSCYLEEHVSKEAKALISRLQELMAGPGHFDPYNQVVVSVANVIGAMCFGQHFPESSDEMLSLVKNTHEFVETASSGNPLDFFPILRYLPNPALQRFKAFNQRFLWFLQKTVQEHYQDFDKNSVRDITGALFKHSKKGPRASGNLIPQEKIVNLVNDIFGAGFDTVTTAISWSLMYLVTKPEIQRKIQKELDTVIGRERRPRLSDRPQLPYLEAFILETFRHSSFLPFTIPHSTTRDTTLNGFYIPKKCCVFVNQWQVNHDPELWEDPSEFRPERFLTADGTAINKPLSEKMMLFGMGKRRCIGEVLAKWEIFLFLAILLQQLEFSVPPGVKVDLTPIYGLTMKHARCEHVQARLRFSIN

[2] = Luminescence Cell-Based Dose Confirmation HTS to Identify Activators of 5'UTR Stem-Loop Driven Alpha-Synuclein mRNA Translation in H4 Neuroglioblastoma Cells. [Related pubchem assays: 1829 (Project Summary), 1814 (Primary HTS)]; format: functional
[3] = biological target: T2, Rac GTPase-activating protein 1 (Homo sapiens, UniProt Q9H0H5); experiment: MgcRacGAP GTPase-activating activity inhibitors, confirmation, biochemical, ADP Hunter fluorescence, primary and confirmatory (AID 624330); format: functional
T2 sequence (Q9H0H5 whole entry): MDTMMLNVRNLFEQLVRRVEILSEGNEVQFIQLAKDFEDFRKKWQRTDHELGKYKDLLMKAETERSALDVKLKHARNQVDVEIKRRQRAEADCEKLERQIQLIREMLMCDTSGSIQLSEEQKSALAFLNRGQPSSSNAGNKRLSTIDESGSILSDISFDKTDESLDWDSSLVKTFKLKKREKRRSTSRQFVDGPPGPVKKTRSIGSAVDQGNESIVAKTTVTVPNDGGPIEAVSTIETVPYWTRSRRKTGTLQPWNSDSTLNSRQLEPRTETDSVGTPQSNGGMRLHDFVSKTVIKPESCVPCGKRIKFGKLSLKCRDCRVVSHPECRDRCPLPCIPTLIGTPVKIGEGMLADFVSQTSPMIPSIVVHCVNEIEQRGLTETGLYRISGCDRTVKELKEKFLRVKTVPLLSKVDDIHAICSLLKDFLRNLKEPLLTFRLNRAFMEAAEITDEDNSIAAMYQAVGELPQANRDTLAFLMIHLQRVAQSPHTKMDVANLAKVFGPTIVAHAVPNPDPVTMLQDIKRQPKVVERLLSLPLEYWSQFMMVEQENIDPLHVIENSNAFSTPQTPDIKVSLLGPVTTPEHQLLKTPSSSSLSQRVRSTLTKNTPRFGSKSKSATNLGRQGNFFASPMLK

Cytochrome P450 3A4 = Cytochrome P450 3A4 (Homo sapiens, UniProt P08684);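 note: CYP3A4 tested as one member of a cytochrome P450 panel screen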
Cytochrome P450 3A4, sequence (P08684 whole entry): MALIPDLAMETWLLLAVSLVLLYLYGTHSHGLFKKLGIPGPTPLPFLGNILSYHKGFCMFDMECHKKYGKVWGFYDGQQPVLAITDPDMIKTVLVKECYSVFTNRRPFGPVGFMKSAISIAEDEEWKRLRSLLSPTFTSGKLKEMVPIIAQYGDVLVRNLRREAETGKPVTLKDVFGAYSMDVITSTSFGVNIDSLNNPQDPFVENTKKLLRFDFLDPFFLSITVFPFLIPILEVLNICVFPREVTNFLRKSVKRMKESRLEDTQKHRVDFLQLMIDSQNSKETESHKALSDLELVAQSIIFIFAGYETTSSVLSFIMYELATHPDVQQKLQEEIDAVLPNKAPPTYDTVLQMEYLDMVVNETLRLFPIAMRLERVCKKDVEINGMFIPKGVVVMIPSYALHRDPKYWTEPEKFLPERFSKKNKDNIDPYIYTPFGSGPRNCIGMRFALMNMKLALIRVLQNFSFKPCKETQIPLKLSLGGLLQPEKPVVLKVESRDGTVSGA

Cytochrome P450 2C19 = Cytochrome P450 2C19 (Homo sapiens, UniProt P33261); experiment: Cytochrome panel assay with activity outcomes. Panel member name: p450-cyp2c19 Compounds with AC50 equal or less than 10 uM are considered active; format: functional; settings: read-out: AC50
Cytochrome P450 2C19, sequence (P33261 whole entry): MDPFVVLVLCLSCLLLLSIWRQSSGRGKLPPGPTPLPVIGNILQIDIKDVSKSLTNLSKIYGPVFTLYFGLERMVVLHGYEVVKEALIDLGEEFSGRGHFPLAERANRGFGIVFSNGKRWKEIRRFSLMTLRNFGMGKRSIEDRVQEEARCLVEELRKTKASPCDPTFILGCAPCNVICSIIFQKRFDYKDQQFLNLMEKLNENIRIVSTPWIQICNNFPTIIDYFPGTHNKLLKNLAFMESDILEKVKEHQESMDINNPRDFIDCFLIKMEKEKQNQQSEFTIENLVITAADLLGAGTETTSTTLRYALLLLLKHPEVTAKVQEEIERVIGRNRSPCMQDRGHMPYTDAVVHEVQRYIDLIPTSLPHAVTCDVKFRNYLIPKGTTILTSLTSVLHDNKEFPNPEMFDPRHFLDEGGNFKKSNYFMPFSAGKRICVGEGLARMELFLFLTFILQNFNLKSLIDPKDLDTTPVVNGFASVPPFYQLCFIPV

[4] = Luminescence Cell-Based Dose Retest to Confirm Inhibitors of Cancer Stem Cells. [Related pubchem assays (depositor defined):AID2717, AID2721]; format: functional; settings: Homo sapiens

Oc1c2c(nc3cc(-c4ccccc4Cl)nn13)CCS2
EC50 (H4): 21.7 µM (active)
EC50 [1]: 2.34 µM (active)

O=C(CCCCn1c(=S)[nH]c2ccsc2c1=O)NCc1ccco1
AC50 (Cytochrome P450 2D6): 39.8 µM (inconclusive)

Cc1nc(SCC(=O)c2ccc(F)cc2)c([N+](=O)[O-])[nH]1
AC50 (Cytochrome P450 2C9): 20 µM (inconclusive)

Cc1nn(-c2ccccc2)c(Cl)c1C(=O)Nc1c(C)n(C)n(-c2ccccc2)c1=O
AC50 (Cytochrome P450 2C9): 20 µM (inconclusive)
AC50 (Cytochrome P450 1A2): 5.01 µM (inconclusive)

O=C(CCc1ccccc1)Nc1ccc(Cl)cn1
EC50 (H4): 19.8 µM (active)
EC50 [1]: 1.18 µM (active)
EC50 [2]: > 120 µM (not active)

O=C(O)C1CSC(c2ccco2)N1 (configuration not stated)
IC50 [3]: 70.6 µM (active)

CCCCOc1ccc(-c2nnn(CC(=O)NCc3ccco3)n2)cc1
EC50 (H4): 10 µM (active)
EC50 [1]: 24.3 µM (active)
EC50 [2]: > 120 µM (not active)

COc1ccc(C2=C/C(=C\c3ccccc3OC(C)=O)C(=O)O2)cc1
EC50 (H4): 48.4 µM (active)
EC50 [1]: 90 µM (active)
EC50 [2]: 18.6 µM (active)

COc1ccc2c(c1OC)C(=O)N1c3ccccc3SC21 (configuration not stated)
EC50 (H4): 0.179 µM (active)
EC50 [1]: 0.124 µM (active)

CC(C)NC(=O)CSc1nnc(C2CC2)n1-c1ccccc1
AC50 (Cytochrome P450 3A4): 25.1 µM (inconclusive)
AC50 (Cytochrome P450 2C9): 31.6 µM (inconclusive)

C=CCNCC(O)COc1ccc(C(C)=O)cc1OC (configuration not stated)
IC50 [3]: 131 µM (active)

CC1CCCCC12NC(=O)N(CC(=O)NC(=O)Nc1ccc3c(c1)OCCO3)C2=O (configuration not stated)
EC50 (H4): 0.117 µM (active)
EC50 [1]: 0.483 µM (active)
EC50 [2]: 0.111 µM (active)

O=C(c1cc(-c2ccc3c(c2)OCO3)on1)N1CCN(c2ccccc2)CC1
EC50 (H4): 4.67 µM (active)
EC50 [1]: 0.817 µM (active)
EC50 [2]: 0.793 µM (active)

CCCCNc1ncnc2c1cnn2-c1ccccc1
EC50 (H4): 27.1 µM (active)

S=C(NCCN1CCOCC1)Nc1ccc(-c2nc3ccccc3[nH]2)cc1
EC50 (H4): 16.5 µM (active)
EC50 [1]: 10.7 µM (active)
EC50 [2]: 16.3 µM (active)

CC1CCc2c(nc3ncnn3c2NCCc2ccccc2F)C1 (configuration not stated)
EC50 (H4): > 120 µM (not active)
EC50 [1]: > 120 µM (not active)
EC50 [2]: > 120 µM (not active)

O=C(O)c1nnsc1-c1ccc(-c2snnc2C(=O)O)cc1
AC50 (Cytochrome P450 2C9): 7.94 µM (inconclusive)

COc1cccc2[nH]c(C(=O)NN)c(N)c12
IC50 [3]: 99.4 µM (active)

c1nc(NC2CC2)c2cc(-c3ccoc3)ccc2n1
AC50 (Cytochrome P450 3A4): 5.01 µM (inconclusive)
AC50 (Cytochrome P450 2D6): 39.8 µM (inconclusive)
AC50 (Cytochrome P450 2C19): 20 µM (inconclusive)

O=C(NC(=S)Nc1ccc(O)cc1)C1CCCC1
IC50 [3]: 29.6 µM (active)

COc1ccccc1CNc1cc(-c2c(C)noc2C)ncn1
AC50 (Cytochrome P450 3A4): 39.8 µM (inconclusive)
AC50 (Cytochrome P450 2D6): 25.1 µM (inconclusive)
AC50 (Cytochrome P450 2C19): 25.1 µM (inconclusive)

COC(=O)c1ccc(NC(=S)N2CCN(Cc3cccc(C)c3)CC2)cc1
AC50 (Cytochrome P450 2D6): 35.5 µM (inconclusive)

Clc1cccc(Cl)c1/C=C/c1cc[nH]n1
EC50 (H4): 27 µM (active)
EC50 [1]: 41.2 µM (active)
EC50 [2]: > 120 µM (not active)

O=C(NC(=S)Nc1cccc(Cl)c1N1CCCCC1)c1cccs1
AC50 [4]: 2.08 µM (active)

COC(=O)c1cc(Br)c(=O)n(CCN2CCCC2)c1
AC50 (Cytochrome P450 2D6): 17.8 µM (inconclusive)
AC50 (Cytochrome P450 2C19): 39.8 µM (inconclusive)
AC50 (Cytochrome P450 2C9): 39.8 µM (inconclusive)
AC50 (Cytochrome P450 1A2): 12.6 µM (inconclusive)

CCCOC(=O)c1c(NC(=O)/C=C/c2cnn(C)c2C)sc(C(=O)OCC)c1C
AC50 (Cytochrome P450 3A4): 15.8 µM (inconclusive)
AC50 (Cytochrome P450 2C19): 10 µM (inconclusive)
AC50 (Cytochrome P450 2C9): 39.8 µM (inconclusive)
AC50 (Cytochrome P450 1A2): 17.8 µM (inconclusive)

c1ccc(NC2=Nc3ccccc3CC2)cc1
EC50 (H4): > 120 µM (not active)
EC50 [1]: 21.1 µM (active)
EC50 [2]: 10.9 µM (active)

OCCNCCSc1nc(C2CCCCC2)n(-c2ccccc2Cl)n1
IC50 [3]: 120 µM (active)

O=C(NCCN1CCOCC1)c1ccc2ccccc2c1
AC50 (Cytochrome P450 2D6): 15.8 µM (inconclusive)
AC50 (Cytochrome P450 1A2): 31.6 µM (inconclusive)

CCN(CC)S(=O)(=O)c1ccc(C)c(NC(=O)CN2CCN(Cc3ccccc3)CC2)c1
IC50 [3]: 84.8 µM (active)

CC1Cc2ccccc2N1C(=O)CSc1nnnn1C(C)C (configuration not stated)
AC50 (Cytochrome P450 3A4): 15.8 µM (inconclusive)
AC50 (Cytochrome P450 2C9): 14.1 µM (inconclusive)
AC50 (Cytochrome P450 1A2): 15.8 µM (inconclusive)

O=C(Nc1ccnc(-c2cccnc2)n1)c1ccccc1Cl
AC50 (Cytochrome P450 2D6): 11.2 µM (inconclusive)
AC50 (Cytochrome P450 2C19): 14.1 µM (inconclusive)

COC(=O)N1CCC[C@@]2(CCN(C(=O)Nc3cccc(F)c3)C2)C1
AC50 (Cytochrome P450 3A4): 12.6 µM (inconclusive)
AC50 (Cytochrome P450 2C9): 39.8 µM (inconclusive)
AC50 (Cytochrome P450 1A2): 15.8 µM (inconclusive)

Cc1ccc(-c2nc3ncccc3o2)cc1NC(=O)c1ccc([N+](=O)[O-])o1
EC50 (H4): > 120 µM (not active)
EC50 [1]: > 120 µM (not active)
EC50 [2]: > 120 µM (not active)

CC(=O)Oc1ccc(C#C/C=C2\c3ccccc3C(=O)N2c2ccccc2)cc1
AC50 [4]: 2.25 µM (active)

CCc1nnc(SCc2ccc(OC(C)C)cc2)n1N
AC50 (Cytochrome P450 3A4): 14.1 µM (inconclusive)
AC50 (Cytochrome P450 2C9): 0.00562 µM (inconclusive)
AC50 (Cytochrome P450 1A2): 15.8 µM (inconclusive)

COC(=O)C1=C(N)Oc2cc(C)n(CC3CCCO3)c(=O)c2C1c1ccccc1OC (configuration not stated)
AC50 (Cytochrome P450 2C19): 22.4 µM (inconclusive)
AC50 (Cytochrome P450 2C9): 28.2 µM (inconclusive)

CCOC(=O)c1[nH]c(C(=O)O)c(CCN(CC)CC)c1C
AC50 (Cytochrome P450 2D6): 3.98 µM (inconclusive)
AC50 (Cytochrome P450 1A2): 39.8 µM (inconclusive)

CC1(C)CCC[C@]2(C)[C@H]3Cc4cc(O)ccc4O[C@]3(C)CC[C@@H]12
AC50 [4]: 4.75 µM (active)

Cc1ccc(C2CC(C(F)(F)F)n3nc(C(=O)NCCN4CCOCC4)cc3N2)cc1 (configuration not stated)
AC50 (Cytochrome P450 2C9): 12.6 µM (inconclusive)
AC50 (Cytochrome P450 1A2): 1 µM (inconclusive)

COc1ccc(N2CCN(c3nc(Nc4ccc(F)cc4)nc(OC)n3)CC2)cc1
AC50 (Cytochrome P450 3A4): 3.16 µM (inconclusive)
AC50 (Cytochrome P450 2C9): 3.55 µM (inconclusive)
AC50 (Cytochrome P450 1A2): 3.16 µM (inconclusive)

N=C1c2ccccc2CN1NC(=O)c1ccc(F)cc1
AC50 (Cytochrome P450 2C19): 28.2 µM (inconclusive)
AC50 (Cytochrome P450 2C9): 17.8 µM (inconclusive)

Cn1c(=O)[nH]c(NCCc2ccc(O)cc2)c([N+](=O)[O-])c1=O
IC50 [3]: 219 µM (active)

COc1cc2c(cc1N)-c1ccc(N)cc1C2=O
IC50 [3]: 12.3 µM (active)

Cc1sc2ncnc(N/N=C/c3ccc(O)cc3)c2c1C
IC50 [3]: 37.6 µM (active)

O=C(O)c1cc(N/N=C/c2c(O)ccc3ccccc23)ccc1Cl
IC50 [3]: 35.7 µM (active)

CC(/C=N/NC(=O)Cc1cccs1)=C\c1ccco1
AC50 (Cytochrome P450 2D6): 14.1 µM (inconclusive)

CC/C(=N\O)c1ccc(O)c(OC)c1
IC50 [3]: 45.2 µM (active)

COc1cc(/C=N\N=C2/SC(CC(=O)O)C(=O)N2c2ccc(O)cc2)ccc1O (configuration not stated)
IC50 [3]: 78.1 µM (active)

CN(C)S(=O)(=O)c1ccc2c(c1)/C(=C/c1cc3c([nH]1)CCCC3)C(=O)N2
AC50 (Cytochrome P450 2D6): 31.6 µM (inconclusive)
AC50 (Cytochrome P450 2C19): 7.94 µM (inconclusive)
AC50 (Cytochrome P450 2C9): 10 µM (inconclusive)

CC=C(/C(=C/C)c1ccc(O)cc1)c1ccc(O)cc1 [DIENESTROL]
AC50 (Cytochrome P450 2D6): 15.8 µM (inconclusive)
AC50 (Cytochrome P450 1A2): 15.8 µM (inconclusive)
